# In US7754768B2, “Methods and compositions for modulating alpha adrenergic receptor activity” (Allergan, Inc., priority 2000, dated 2010):
# Legend:
# [1] = system: rat spinal nerve ligation allodynia model; test: Rat spinal nerve ligation allodynia model (chronic pain, von Frey tactile allodynia); assay type: in vivo; details: 30 minutes after administration
# Experimental: (§1) The physiological activity of these compounds was tested using four models: a rat locomotor model to assess sedation, an assay of cardiovascular activity in monkeys, a rat thermal paw withdrawal assay (Dirig et al., J. Neurosci. Methods 76:183-191 (1997) to test the alleviation of acute pain, and the rat spinal nerve ligation allodynia model (Kim and Chung, Pain 50:355-363 (1992) to assess the alleviation of neuropathic pain and central sensitization typical of chronic pain. As is known to those of skill in the art, these tests are established pharmacological methods for determining sedation, cardiovascular effects, acute pain and chronic pain, respectively, of pharmaceutical agents.
# A model for chronic pain (in particular peripheral neuropathy such as causalgia) involves the surgical ligation of the L5 (and optionally the L6) spinal nerves on one side in experimental animals. Rats recovering from the surgery gain weight and display a level of general activity similar to that of normal rats. However, these rats develop abnormalities of the foot, wherein the hindpaw is moderately everted and the toes are held together. More importantly, the hindpaw on the side affected by the surgery appears to become sensitive to pain from low-threshold mechanical stimuli, such as that producing a faint sensation of touch in a human, within about 1 week following surgery. This sensitivity to normally non-painful touch is called “tactile allodynia” and lasts for at least two months. The response includes lifting the affected hindpaw to escape from the stimulus, licking the paw and holding it in the air for many seconds. None of these responses is normally seen in the control group.
# Rats are anesthetized before surgery. The surgical site is shaved and prepared either with betadine or Novacaine. Incision is made from the thoracic vertebra X111 down toward the sacrum. Muscle tissue is separated from the spinal vertebra (left side) at the L4-S2 levels. The L6 vertebra is located and the transverse process is carefully removed with a small rongeur to expose the L4-L6 spinal nerves. The L5 and L6 spinal nerves are isolated and tightly ligated with 6-0 silk thread. The same procedure is done on the right side as a control, except no ligation of the spinal nerves is performed.
# A complete hemostasis is confirmed, then the wounds are sutured. A small amount of antibiotic ointment is applied to the incised area, and the rat is transferred to the recovery plastic cage under a regulated heat-temperature lamp. […]
# Tactile allodynia is measured prior to and 30 minutes after drug administration using von Frey hairs that are a series of fine hairs with incremental differences in stiffness. […] The applied force has been calculated to range from 0.41 to 15.1 grams. […]
# [2] = system: African Green monkeys made glaucomatous; test: Intraocular pressure in glaucomatous African Green monkeys after oral dosing; assay type: in vivo, African Green monkey
# Experimental: African Green monkeys are made glaucomatous and divided into three groups. Ocular hypertension is measured before the administration of any drug, then one of each group of animals is given an oral dose of either a) glucose (negative control); b) a formulation of FORMULA 2 at a dosage of either 2 mg/kg or 7 mg/kg, or c) Diamox® (acetazolamide; a carbonic anhydrase inhibitor used for treatment of glaucoma) (positive control) at a concentration of 20 mg/kg. Intraocular pressure is measured at 0, 6, 12, and 24 hours following administration of each formulation.
# [3] = system: male Sprague-Dawley rats; test: Rat locomotor model to assess sedation (exploratory activity); assay type: in vivo; details: 30 minutes after injection, versus vehicle controls
# Experimental: as §1
# To test sedation, six male Sprague-Dawley rats were given up to 3 mg/kg of each compound in a saline or DMSO vehicle by intraperitoneal injection (i.p.). Sedation was graded 30 minutes following administration of the drug by monitoring locomotor skills as follows.
# The Sprague-Dawley rats are weighed and 1 ml/kg body weight of an appropriate concentration (ie. 3 mg/ml for a final dose of 3 mg/kg) drug solution is injected intraperitoneally. FORMULA 3 is formulated in approximately 10% DMSO and FORMULA 2 and FORMULA 4 are formulated in 50% DMSO. The results are compared to 29 historical controls that were injected with 1 ml/kg saline or 50% DMSO. Rat activity is then determined 30 minutes after injection of the drug solution. Rats are placed in a dark covered chamber and a digicom analyzer (Omnitech Electronic) quantitates their exploratory behavior for a five-minute period. The machine records each time the rat interrupts an array of 32 photoelectric beams in the X and Y orientation.
# FORMULA 2 and FORMULA 3 were tested at 1 mg/kg and FORMULA 4 was tested at 3 mg/kg. Thus, the compounds are not sedating.
# [4] = system: visceral pain; test: Treatment of visceral pain in a colon cancer patient; assay type: in vivo, human; details: intravenous infusion twice daily, after two days, one patient
# Description: A patient suffering from colon cancer and undergoing chemotherapy experiences severe visceral pain associated with this primary condition. Treatment of this pain with opiates has been ineffective to provide substantial relief. The patient is given a therapeutic amount of FORMULA 3 by intravenous infusion in a pharmaceutically acceptable vehicle. The treatment is given twice daily. […] Under the same facts as Example 7, except the patient is given FORMULA 2 instead of FORMULA 3.
# [5] = system: allodynia resulting from shingles; test: Treatment of allodynia resulting from shingles in a patient; assay type: in vivo, human; details: oral capsule as needed, after two days' treatment, one patient
# Description: A person in generally good physical condition suffers from serious pain to their upper body due caused by contact of their skin with their clothing. The patient is unable to wear clothing on their upper body without severe pain. […] The patient is given a therapeutically effective oral dose of FORMULA 3 in capsule form as needed for the treatment of pain. […] Same facts as in Example 5, except the patient is given a therapeutically effective oral dose of FORMULA 2 in capsule form as needed for the treatment of pain.
compound,measurement,setting,value
OCCNC(=S)NCc1ccc(F)cc1 [AGN196204],Reduction of the response to tactile stimuli that indicate tactile allodynia (analgesic in chronic pain model),[1],able to reduce the response to the tactile stimuli
"CC(=O)Nc1nnc(S(N)(=O)=O)s1 [Diamox ®, acetazolamide, reference compound]",Change in Intraocular Pressure (%),"[2]; oral 20 mg/kg (positive control), 0 hours",0%
same,Change in Intraocular Pressure (%),"[2]; oral 20 mg/kg (positive control), 6 hours",−38%
same,Change in Intraocular Pressure (%),"[2]; oral 20 mg/kg (positive control), 12 hours",−41%
same,Change in Intraocular Pressure (%),"[2]; oral 20 mg/kg (positive control), 24 hours",−18%
"OCCNC(=S)NCc1cccc(Cl)c1F [FORMULA 2, 1-(3-chloro-2-fluorobenzyl)-3-(2-hydroxyethyl)-thiourea]",Change in Intraocular Pressure (%),"[2]; oral 2 mg/kg, 0 hours",0%
same,Change in Intraocular Pressure (%),"[2]; oral 2 mg/kg, 6 hours",−18%
same,Change in Intraocular Pressure (%),"[2]; oral 2 mg/kg, 12 hours",−32%
same,Change in Intraocular Pressure (%),"[2]; oral 2 mg/kg, 24 hours",−3%
same,Change in Intraocular Pressure (%),"[2]; oral 7 mg/kg, 0 hours",0%
same,Change in Intraocular Pressure (%),"[2]; oral 7 mg/kg, 6 hours",−22%
same,Change in Intraocular Pressure (%),"[2]; oral 7 mg/kg, 12 hours",−26%
same,Change in Intraocular Pressure (%),"[2]; oral 7 mg/kg, 24 hours",−15%
same,Sedation: reduction in the exploratory activity of the rats,[3]; 1 mg/kg i.p.,not sedating
same,Reduction of the response to tactile stimuli that indicate tactile allodynia (analgesic in chronic pain model),[1],able to reduce the response to the tactile stimuli
same,Patient-reported visceral pain,[4],significant alleviation
same,Patient-reported allodynia resulting from shingles,[5],markedly reduced
OCCNC(=S)NCc1ccc(F)cc1 [FORMULA 3],Sedation: reduction in the exploratory activity of the rats,[3]; 1 mg/kg i.p.,not sedating
same,Reduction of the response to tactile stimuli that indicate tactile allodynia (analgesic in chronic pain model),[1],analgesic in a model of chronic pain
same,Patient-reported visceral pain,[4],significant alleviation
same,Patient-reported allodynia resulting from shingles,[5],markedly reduced
"OCCNC(=S)NCc1ccccc1F [FORMULA 4, reference compound]",Sedation: reduction in the exploratory activity of the rats,[3]; 3 mg/kg i.p.,not sedating
same,Analgesic activity (tactile allodynia),[1]; i.p. doses up to 3 mg/kg,no analgesic activity
